Test results taken from US5389615A, “Peptides and pharmaceutical composition thereof in the treatment of pain” (British Technology Group Ltd., priority 1988, dated 1995).
Like-named read-outs stand apart in the source and are kept apart here. Non-standard residues stand in square brackets, D forms with d. Residues, ends and D or L forms follow the SMILES beside them.

Tests used:
[1] = system: hyperalgesia evoked by acetic acid; experiment: Contortions (writhing) evoked by acetic acid, Examples 9 and 10; format: in vivo, mice; conditions: Example 10; for total number of contorsions during 20 minutes after ip challenge: control 45.3
Experimental: (§1) Iloprost is a stable analogue of prostacyclin and has the formula: [drawing 4]
(§2) Example 9 was repeated with some groups of mice given indomethacin at various doses rather than the peptide K(D)PT. A control group of mice received neither indomethacin nor K(D)PT. The data are the total number of contorsions measured during 20 minutes after the ip challenge.

[2] = system: human blood mononuclear cells (MNC); experiment: PGE2 release by human blood mononuclear cells; format: cell-based
Experimental: The effect of K(D)PT and indomethacin on PGE2 release by human blood mononuclear cells (MNC) was investigated. The MNC were isolated from buffy coat residues by density gradient centrifugation (Ficoll-hypaque, Sigma) and resuspended in RPMI 1640 culture medium (Gibco)+ 2% inactivated foetal calf serum (Imperial Laboratories). […] Values are means of quadruplicates ±s.e.m.'s. PGE2 concentrations were measured by radioimmunoassay (NEN Research Products).

[3] = system: hyperalgesia evoked by Iloprost; experiment: Contortions (writhing) evoked by Iloprost, Examples 9 and 10; format: in vivo, mice; conditions: Example 10, Iloprost 10 μg/kg; for total number of contorsions during 20 minutes after ip challenge: control 39.4
Experimental: as §1, §2

[4] = system: hyperalgesia evoked by acetic acid; experiment: Contorsions evoked by acetic acid, Example 19; format: in vivo, mice; conditions: for number of contorsions (median), 10 to 20 min after acetic acid: 30 min before acetic acid
Experimental: The number of contorsions (abdominal constrictions or writhes) was counted in the period between 10 and 20 min after ip challenge with acetic acid by an observer unaware of drug treatment.

[5] = mouse, in vivo
[6] = system: hyperalgesia evoked by IL-1β; experiment: Modified Randall-Sellito rat paw pressure test, hyperalgesia evoked by IL-1β; format: in vivo; conditions: indomethacin 100 μg ipl 30 minutes before 0.05U IL-1β ipl or ip
Experimental: The hyperalgesic activity of IL-1β was investigated by a modified Randall-Sellito rat paw pressure test (Ferreira et al, Eur. J. Pharacol. 53, 39-48, 1978).
The IL-1β was given either intraplantar (ipl, injection volume=0.1 ml) or intraperitoneally (ip, injection volume=0.3 ml).
The intensity of hyperalgesia was quantified as the variation of the reaction time (Δ reaction time, sec) obtained by subtracting the value measured 1,2,3 or 4h after administration of the hyperalgesic agent from the pre-injection control reaction time (zero time). The experimenter was unaware of the group treatments.
The vertical bars are standard errors of the means (s.e.m's) of values obtained in groups of 5 rats.
Each symbol or histogram represents the mean response of 5 animals per treatment group. Vertical bars are s.e.m's.
The data are means±s.e.m.'s of 5 animals per treatment group.
Each symbol represents the mean response of 5 animals per treatment group. Vertical bars are s.e.m.'s.
Treatments were given ip, lh before Il-1β, also given ip. There were 5 animals per treatment group.
Delta reaction time was measured 3h after Il-1β administration.
The Control was II-1β (0.05U), given ip.

[7] = Gastric lesions in mice

In the case of `COc1ccc2c(c1)c(CC(=O)O)c(C)n2C(=O)c1ccc(Cl)cc1` [Indomethacin, indomethacin], the “total number of contorsions during 20 minutes after ip challenge” value (shortened to “total number”) ([1]; acetic acid .6% 0.1 ml/10 g, 1.25 mg/kg) is reported as 34.6, the “(-%) reduction of contorsions vs control” value ([1]; acetic acid .6%, 1.25 mg/kg) is reported as 23.6% and the “(-%) reduction of contorsions vs control” value ([1]; acetic acid .6%, 5.0 mg/kg) is reported as 46.3%. The “total number” value ([1]; acetic acid .6%, 5.0 mg/kg) was 24.3, the “(-%) reduction of contorsions vs control” value ([1]; acetic acid .6%, 20.0 mg/kg) was 57.4% and the “total number” value ([1]; acetic acid .6%, 20.0 mg/kg) was 19.3. For the same compound, the “effect on production of PGE2 / prostaglandin” value [2] was “abolished PGE2 production”, the “PGE2 release by MNC incubated for 4h with IL-1α (50 U/ml)” value ([2]; 2 μg/ml, 5.9 micromoles/L, added 45 min before, ethanol control 2.0) was 0.03 ± 0.0007 ng/mL and the “PGE2 release by MNC incubated for 4h with IL-1β (50 U/ml)” value ([2]; 2 μg/ml, 5.9 micromoles/L, added 45 min before, ethanol control 2.1) was 0.03 ± 0.0005 ng/mL. For the same compound, the “PGE2 release by MNC incubated for 4h with E. coli endotoxin (25 pg/ml)” value ([2]; 2 μg/ml, 5.9 micromoles/L, added 45 min before, ethanol control 3.1) was 0.03 ± 0.0004 ng/mL, the “PGE2 release by MNC (5 × 10^6 cells/ml) incubated for 4h with Saline control (0.9% w/v)” value ([2]; 2 μg/ml, 5.9 micromoles/L, ethanol control 1.3) was 0.03 ± 0.0002 ng/ml and the “(-%) reduction of contorsions vs control” value ([3]; 1.25 mg/kg) was 7.6%. For the same compound, the “total number” value ([3]; 1.25 mg/kg) was 36.4, the “(-%) reduction of contorsions vs control” value ([3]; 5.0 mg/kg) was 26.0% and the “total number” value ([3]; 5.0 mg/kg) was 29.2. For the same compound, the “(-%) reduction of contorsions vs control” value ([3]; 20.0 mg/kg) was 46.0%, the “total number” value ([3]; 20.0 mg/kg) was 21.3 and the “% reductions from control values in mice injected with saline” value (shortened to “% reductions from control values”) ([4]; 2.5 mg/kg ip) was -37%. The “number of contorsions (median), 10 to 20 min after acetic acid” value (from here on “number of contorsions (median)”) ([4]; 2.5 mg/kg ip) was 16.5, the “% reductions from control values” value ([4]; 5 mg/kg ip) was -61.5% and the “number of contorsions (median)” value ([4]; 5 mg/kg ip) was 10. The “% reductions from control values” value ([4]; 10 mg/kg ip) was -61.5%, the “number of contorsions (median)” value ([4]; 10 mg/kg ip) was 10 and the “gastric erosions, % of the mice” value [5] was 100%. For the same compound, the “gastric lesions” value [5] was “caused gastric lesions”, the “effect of pretreatment on hyperalgesic response to IL-1β, contralateral paws (CL)” value [6] was “no effect” and the “effect of pretreatment on hyperalgesic response to IL-1β, treated paws (I)” value [6] was “markedly attenuated”.

In the case of `NCCCC[C@H](N)C(=O)N1CCC[C@@H]1C(=O)O` [K(D)P, Lys-D-Pro] (H-Lys-[dP]-OH), the “% reductions from control values” value ([4]; 5 mg/kg ip) is reported as -58%, the “number of contorsions (median)” value ([4]; 5 mg/kg ip) is reported as 11 and the “% reductions from control values” value ([4]; 5 mg/kg po) is reported as -10%. For the same compound, the “number of contorsions (median)” value ([4]; 5 mg/kg po) was 19, the “% reductions from control values” value ([4]; 10 mg/kg po) was -36% and the “number of contorsions (median)” value ([4]; 10 mg/kg po) was 13.5. For the same compound, the “% reductions from control values” value ([4]; 20 mg/kg ip) was -77%, the “number of contorsions (median)” value ([4]; 20 mg/kg ip) was 6 and the “% reductions from control values” value ([4]; 20 mg/kg po) was -38%. For the same compound, the “number of contorsions (median)” value ([4]; 20 mg/kg po) was 14, the “analgesic activity against hyperalgesia evoked by acetic acid, given ip” value ([4]; ip) was “effective analgesic” and the “analgesic activity against hyperalgesia evoked by acetic acid, given orally” value ([4]; po) was “effective analgesic”.

For `C[C@@H](O)[C@H](NC(=O)[C@H]1CCCN1C(=O)[C@@H](N)CCCCN)C(=O)O` [K(D)PT, Lys-D-Pro-Thr] (H-Lys-[dP]-Thr-OH), the “gastric lesions” value ([7]; 32 mg/kg) was “No lesions were observed” and the “gastric lesions” value ([7]; mice of Example 10) was “did not”.
